In data set [1] the test system is MDA-MB-231 cells. The experiment in a line: Real-time cell migration, xCELLigence (MDA-MB-231). In kind it is cell-based. The method, then: (§1) In vitro vasculogenic mimicry of cancer cells was assessed using a Matrigel tube formation assay. In brief, each well of a 96-well plate was pre-coated with Matrigel. ES-2 ovarian cancer or MDA-MB-231 TNBC cell suspensions were seeded on top of Matrigel. 3D-tubular structures were analyzed and quantified using Wimasis Analysis software. Real-time cell migration was evaluated using the ×CELLigence system. Sortilin gene silencing was performed with specific siRNA. Effects of Doxorubicin-KA-peptide conjugate (DoxKA) KBA-106 represented by formula Acetyl-GVRAK(doxorubicin)AGVRN(Nle)FK(doxorubicin)SESY (Formula (XXVIII)) and Docetaxel-KA-peptide conjugate (DoceKA) represented by formula Acetyl-GVRAK(docetaxel)AGVRN(Nle)FK(docetaxel)SESY (Formula (XXIII)) targeting Sortilin on vasculogenic mimicry and cell migration were determined.
(§2) MDA-MB-231 cells were used as a TNBC cell model for in vitro and in vivo xenograft (CD1 nude mice) assays. Cell migration was assessed using the ×CELLigence real-time system, whereas MTT assay was used for cell proliferation analysis. Apoptosis biomarkers expression was assessed by immunoblotting.

In data set [2] the test system is ES-2 ovarian cancer cells. The experiment in a line: Real-time cell migration, xCELLigence (ES-2). The class given is cell-based, human. The method, then: as §1
In data set [3] the test system is MDA-MB-231 cells. The experiment in a line: MTT cell proliferation assay. The class given is cell-based. The method, then:
as §2

In data set [4] the test system is MDA-MB-231 xenograft tumor. As to the kind of experiment: MDA-MB-231 xenograft tumor model. In kind it is in vivo, CD1 nude mice. To be noted: murine MDA-MB-231 xenograft. The protocol:
as §2

Data set [5] can be described thus: DoceKA pharmacokinetics in mice (plasma, UPLC/MS). The class given is in vivo, CD-1 mice. To be noted: for half-life: iv, 50 mg/kg. The method, then:
FIG. 29A illustrates the plasma concentration for DoceKA and released Docetaxel (BDL) at progressive time intervals. FIG. 29B illustrates the PK in CD-1 mice. […] Plasma was collected at different time points. DoceKA and released Docetaxel were extracted with acetonitrile. DoceKA and released Docetaxel, were quantified by UPLC/MS using Paclitaxel as the internal standard: 2 μl and 10 μl of supematants were injected for DoceKA and Docetaxel directly without lyophilization.
PK data on Docetaxel were obtained from refs. 50 and 51. PK analysis for DoceKA was carried out using PK solutions software. Docetaxel PK in mice is biphasic and linear between 13-62 mg/kg. […] Both have similar half-lives. DoceKA has a lower clearance (CL) and Volume of distribution (Vd). These preliminary data need to be confirmed with more data (shorter and longer time points).

The subject of data set [6] is IL-6, Survivin, Bcl-xL and mutant p53. As to the kind of experiment: Immunoblotting of pro-survival biomarkers. The conditions noted are these: MDA-MB-231. The class given is cell-based.
From the text: FIGS. 22A and 22B illustrate the molecular mechanism of cell death induction by DoceKA in MDA-MB-231 cells. FIG. 22A illustrates the immunoblotting experiment showing the expression level of IL-6, Survivin, Bcl-xi and mutated p53 in MDA-MB-231 cell after treatment with Docetaxel and DoceKA. GAPDH was used as a control. FIG. 22B data are representative of three independent experiments and the bar graphs show the densitometric quantification of IL-6, Survivin, Bcl-xL and p53 expression as compared to GAPDH. The mean value of the control group was set to be 1.0.
as §2

The test system of another data set is tubulin. The experiment in a line: Tubulin / microtubule polymerization. In kind it is biochemical. The method, then:
FIGS. 23A and 23B depict the DoceKA impact on tubulin polymerization. More particularly, FIG. 23A illustrates cells treated with vehicle (DMSO), 2 μM Docetaxel or 1 μM DoceKA for 24 hours, fixed and immunostained with anti-a-tubulin antibody and imaged using confocal microscopy. […] FIG. 23B illustrates that in a fluorescence-based polymerization assay, the effect of Docetaxel (2 μM) and DoceKA (1 μM) on polymerization of purified tubulin was examined in vitro. Paclitaxel (2 μM) and Vinblastine (2 μM) were added as controls for tubulin-polymerizing and tubulin-depolymerizing agents, respectively. Tubulin assembly into microtubules was determined by an increase in fluorescence emission (Ex. 340-360 nm±20 nm; Em. 410-460 nm±20 nm).

A short description of data set [7]: Blood cell / neutrophil counts after treatment. The class given is in vivo, nude mice. The text has this:
FIG. 27A illustrates the effect on lymphocytes after 3 treatments with different concentrations of Docetaxel or DoceKA. FIG. 27B illustrates the effect on platelets after 3 treatments with different concentrations of Docetaxel or DoceKA. FIG. 27C illustrates the effect on neutrophils after 3 treatments with different concentrations of Docetaxel or DoceKA. IP means intraperitoneal administration, while IV means intravenous delivery.
FIG. 28 depicts the preliminary toxicity data on DoceKA, specifically, the neutrophils count (g/L) after DoceKA treatments at different dosages of Docetaxel or DoceKA.

The test system of a further data set is MDA-MB-231 TNBC cells. As to the kind of experiment: In vitro vasculogenic mimicry, Matrigel tube formation assay (MDA-MB-231). The class given is cell-based. To be noted: MDA-MB231; FIG. 43. The protocol:
as §1

Data set [8] deals with MDA-MB-231 cells. The experiment in a line: Cell death / apoptosis (Annexin V-FITC/PI). The class given is cell-based.
Method: MDA-MB-231 cells treated for 5 hours with control (vehicle) or with increasing concentrations of Docetaxel or DoceKA. Cells were then harvested and the rate of apoptosis was determined following staining with Annexin V-FITC and propidium iodide (PI). Cells were analyzed by flow cytometry.
Data set [9] has as its system ES-2 ovarian cancer cells. The experiment in a line: In vitro vasculogenic mimicry, Matrigel tube formation assay (ES-2). In kind it is cell-based, human.
The test system of data set [10] is MDA-MB-231 breast cancer cells. The experiment in a line: [3H]-Thymidine Incorporation assay. The conditions noted are these: Homo sapiens, GraphPad Prism. In kind it is cell-based. The method, then: FIG. 19 depicts the in vitro anticancer properties of DoceKA against MDA-MB-231 breast cancer cells as determined using the [3H]-Thymidine Incorporation assay. Incorporated [3H]-Thymidine was plotted for each drug concentration. IC50 values (nM) were calculated using the GraphPad Prism software. […] is a set of graphs depicting the cell-cycle distribution of MDA-MB231 cells determined based on cellular DNA content using flow cytometry after 24 hours of treatment with 2 μM Docetaxel or 1 μM DoceKA.

The conditions of data set [11]: cited from earlier work.
[12] abbreviates: CD-1, mouse, plasma, DoceKA 50 mg/kg, intravenous, preliminary data.

Several values for one entry are separate records, joined by “and”; a condition that tells them apart may be missing. Equal entries are not always repeated. Entries after “also recorded” stand apart in the source; their conditions may differ. Where two headings read alike, the source gives them in different places. Where a SMILES comes first, the peptide text is derived from it. [ ]: non-standard residue; d: D form. The star is where a group is joined. X1 = CC(=O)O[C@@]12CO[C@@H]1C[C@H](O)[C@@]1(C)C(=O)[C@H](O)C3=C(C)[C@@H](OC(=O)[C@H](OC(=O)CCC(=O)*)[C@@H](NC(=O)OC(C)(C)C)c4ccccc4)C[C@@](O)([C@@H](OC(=O)c4ccccc4)[C@H]21)C3(C)C; Nle = CCCC[C@H](N)C(=O)O

Data on 2 compounds can be found in patent US20220000971A1, “METHODS AND COMPOUNDS FOR TARGETING SORTILIN RECEPTORS AND INHIBITING VASCULOGENIC MIMICRY” (TRANSFERT PLUS, S.E.C., priority 2018, published 2022).

As for `CCCC[C@H](NC(=O)[C@H](CC(N)=O)NC(=O)[C@H](CCCNC(=N)N)NC(=O)[C@@H](NC(=O)CNC(=O)[C@H](C)NC(=O)[C@H](CCCCNC(=O)CCC(=O)O[C@@H](C(=O)O[C@H]1C[C@@]2(O)[C@@H](OC(=O)c3ccccc3)[C@@H]3[C@]4(OC(C)=O)CO[C@@H]4C[C@H](O)[C@@]3(C)C(=O)[C@H](O)C(=C1C)C2(C)C)[C@@H](NC(=O)OC(C)(C)C)c1ccccc1)NC(=O)[C@H](C)NC(=O)[C@H](CCCNC(=N)N)NC(=O)[C@@H](NC(=O)CNC(C)=O)C(C)C)C(C)C)C(=O)N[C@@H](Cc1ccccc1)C(=O)N[C@@H](CCCCNC(=O)CCC(=O)O[C@@H](C(=O)O[C@H]1C[C@@]2(O)[C@@H](OC(=O)c3ccccc3)[C@@H]3[C@]4(OC(C)=O)CO[C@@H]4C[C@H](O)[C@@]3(C)C(=O)[C@H](O)C(=C1C)C2(C)C)[C@@H](NC(=O)OC(C)(C)C)c1ccccc1)C(=O)N[C@@H](CO)C(=O)N[C@@H](CCC(=O)O)C(=O)N[C@@H](CO)C(=O)N[C@@H](Cc1ccc(O)cc1)C(=O)O` [DoceKA, Acetyl-GVRAK(docetaxel)AGVRN(Nle)FK(docetaxel)SESY] (Ac-GVRAK(X1)AGVRN[Nle]FK(X1)SESY-OH), the cell migration result with MDA-MB-231 cells [1] is “inhibited; also recorded: potent anti-proliferative and anti-migratory activities”. Further, the cell migration entry in data set [2] was “inhibited”. Also, the cell proliferation entry with MDA-MB-231 cells [3] was “potent anti-proliferative and anti-migratory activities”. Further, in [4], the “tumor regression and survival compared to Docetaxel” value is “greater tumor regression capacity with a prolonged survival”. Moreover, in data set [5] (CD-1, mouse, plasma, DoceKA 50 mg/kg, intravenous, preliminary data, read-out: t½ adsorption distribution), the half-life lay in the range of 6 to 20 min. In addition, the half-life in data set [5] (CD-1, mouse, plasma, DoceKA 50 mg/kg, intravenous, preliminary data, read-out: t½ elimination) is 90 to 150 min. Also, in data set [5] (setting [12]), the AUC is 614 µM·h and 2.3e+06 ng·h/mL; the Cmax is 1.6e+06 ng/mL and 437 µM; the Vd turned out to be 0.04 L/kg; the clearance is 0.3 mL/min/kg. In data set [5] (DoceKA 20 mg/kg intravenously, at 0.083, 0.25 and 4 hours), the “plasma concentration of released Docetaxel” value is recorded as “below the limit of quantification”. In addition, the “AUC (tissue exposure) of DoceKA compared to Docetaxel” value in data set [5] (higher for DoceKA) is “about 29 fold”. Besides, the “Cmax of DoceKA compared to Docetaxel” value in [5] (higher, compared to Docetaxel (20 mg/kg)) is “about 18 fold”. The “expression of pro-survival biomarkers” value in data set [6] is “down-regulation of IL-6, Survivin, Bcl-xL and mutant p53”. Also, in the data set with tubulin, the microtubules polymerization entry is “altered microtubules polymerization”. Further, the neutrophils count entry in data set [7] (after six injections) is recorded as “remained within normal limits”. The “effect on blood cells (lymphocytes, platelets, neutrophils)” value in data set [7] (nude mice, 3 treatments) is reported as “absence of effect”. For the same compound, the “vasculogenic mimicry inhibition compared to Docetaxel alone” value in the data set on MDA-MB-231 TNBC cells is “stronger inhibition of vasculogenic mimicry”. Moreover, in the data set with MDA-MB-231 cells [8], the “cell death induction compared to free Docetaxel” value was “faster and higher cell death mechanisms”. The “concentration at which total number of loops and total tube length are inhibited” value in data set [9] (ES-2 on Matrigel) is reported as “low pM concentration; also recorded: very low pM concentration; also recorded: inhibited at low nM concentrations”. Moreover, in data set [9] (ES-2 on Matrigel, 12 hrs, equivalent concentration of free drug (Docetaxel 600 pM)), the “vasculogenic mimicry inhibition compared to unconjugated drug” value was “stronger inhibition of vasculogenic mimicry than unconjugated free drugs; also recorded: stronger inhibition of 3Dtubulare structures than Docetaxel alone”. In addition, in data set [9] (Example 2, ovarian cancer and TNBC cells), the “IC50 values for vasculogenic mimicry inhibition” value is “low nM to pM”.
Take `CC(=O)O[C@@]12CO[C@@H]1C[C@H](O)[C@@]1(C)C(=O)[C@H](O)C3=C(C)[C@@H](OC(=O)[C@H](O)[C@@H](NC(=O)OC(C)(C)C)c4ccccc4)C[C@@](O)([C@@H](OC(=O)c4ccccc4)[C@H]21)C3(C)C` [Docetaxel, docetaxel]: in data set [10], the midpoint of inhibition, the IC50, lay at 0.68 nM. Besides, in data set [11] (Docetaxel 10 mg/kg, mice), the CL is recorded as 2100 mL/h/kg, the Vd is 2.2 to 5 L/kg, the t½ adsorption distribution is 7 min and the t½ elimination is 1.2 h. Moreover, the “Reported Cmax” value in data set [11] (Docetaxel dosed at 20 mg/kg) is listed as “about 20 μg/ml”. Further, the Cmax in data set [11] (Docetaxel dosed at 20 mg/kg, read-out: Reported Cmax) is about 25 µM. For the same compound, the neutrophils count result in data set [7] (four days after a single injection at the maximum tolerable dose) was “drastic reduction in neutrophils count”.
